The subject of data set [1] is Magnaporthe grisea (Pyricularia oryzae). In words: microbe, parasite or virus in culture. In kind it is cell-based. To be noted: 72 h, read-out: control of Magnaporthe grisea.
In data set [2] the test system is Glomerella lagenarium (Colletotrichum lagenarium). The data set is described as follows: Glomerella lagenarium (Colletotrichum lagenarium) / liquid culture (anthracnose). The following applies: Colletotrichum orbiculare; read-out: control of Glomerella lagenarium. In kind it is cell-based.
The subject of data set [3] is Fusarium culmorum. The data set is described as follows: microbe, parasite or virus in culture. The class given is cell-based. To be noted: read-out: control of Fusarium culmorum.
Data set [4] deals with Fusarium culmorum. The data set is described as follows: whole plant or invertebrate. The class given is in vivo. The following applies: in Triticum aestivum, read-out: control of Fusarium culmorum.
The test system of data set [5] is Botryotinia fuckeliana (Botrytis cinerea). In words: Botryotinia fuckeliana (Botrytis cinerea) / liquid culture (gray mould). In kind it is cell-based. The following applies: 72 h, read-out: control of Botryotinia fuckeliana.
Data set [6] has as its system Mycosphaerella graminicola (Septoria tritici). In words: Mycosphaerella graminicola (Septoria tritici) / liquid culture (Septoria blotch). In kind it is cell-based. The following applies: Zymoseptoria tritici; read-out: control of Mycosphaerella graminicola.
The subject of data set [7] is Monographella nivalis (Microdochium nivale). The data set is described as follows: Monographella nivalis (Microdochium nivale) / liquid culture (foot rot cereals). The class given is cell-based. The following applies: 96 h, read-out: control of Monographella nivalis.
Data set [8] deals with Sclerotinia sclerotiorum. The data set is described as follows: Sclerotinia sclerotiorum / liquid culture (cottony rot). The following applies: 72 h, read-out: control of Sclerotinia sclerotiorum.
Experimental: Sclerotinia sclerotiorum/Liquid Culture (Cottony Rot)
Mycelia fragments of a newly grown liquid culture of the fungus are directly mixed into nutrient broth (Vogels broth). After placing a (DMSO) solution of test compound into a microtiter plate (96-well format) the nutrient broth containing the fungal material is added. The test plates are incubated at 24° C. and the inhibition of growth is determined photometrically 3-4 days after application.
Data set [9] concerns Gaeumannomyces graminis. The data set is described as follows: Gaeumannomyces graminis / liquid culture (take-all of cereals). In kind it is cell-based. The following applies: read-out: control of Gaeumannomyces graminis.

Structures are written as SMILES.

Regarding `CC(C)(O)CC(C)(Cc1ccccc1)NC(=O)c1cnc2c(F)cccc2c1` (stereo not shown) [Compound E-58, N-(1-benzyl-3-hydroxy-1,3-dimethyl-butyl)-8-fluoro-quinoline-3-carboxamide], the inhibition of growth at 200 ppm in [1], in data set [2], in [3], in data set [5], in data set [6] and in [7] was at least 80% each time. The pest or weed control at 200 ppm in data set [4] is at least 80%.

The compound `C=C(C)CC(C)(Cc1ccccc1)NC(=O)c1cnc2c(F)c(F)ccc2c1` (stereo not shown) [Compound E-55, N-(1-benzyl-1,3-dimethyl-but-3-enyl)-7,8-difluoro-quinoline-3-carboxamide] displayed a melting point of 94 to 96 °C. The inhibition of growth at 200 ppm in data set [1] was at least 80%. Also, in data set [2], the inhibition of growth at 200 ppm was at least 80%. For the same compound, the inhibition of growth at 200 ppm in data set [3] was at least 80%. The pest or weed control at 200 ppm in data set [4] was at least 80%. Further, in [5], the inhibition of growth at 200 ppm was at least 80%. Also, the inhibition of growth at 200 ppm in data set [6] was at least 80%. For the same compound, the inhibition of growth at 200 ppm in data set [7] is at least 80%.

`CC(C)(F)C[C@](C)(Cc1ccccc1)NC(=O)c1cnc2c(F)cccc2c1` [Compound F-24, N-[(1S)-1-benzyl-3-fluoro-1,3-dimethyl-butyl]-8-fluoro-quinoline-3-carboxamide]: the inhibition of growth at 200 ppm in [2], in [3], in [5], in data set [6] and in data set [7] was at least 80% in each case. In addition, the pest or weed control at 200 ppm in data set [4] was at least 80%.

As to `CC(C)CC(C)(Cc1ccc(F)cc1)NC(=O)c1cnc2c(F)cccc2c1` (stereo not shown) [Compound E-24, 8-fluoro-N-[1-[(4-fluorophenyl)methyl]-1,3-dimethyl-butyl]quinoline-3-carboxamide], the melting point lay within 38 to 39 °C. For the same compound, the inhibition of growth at 200 ppm in [1] was at least 80%. Moreover, the inhibition of growth at 20 ppm in data set [8] is at least 80%. The inhibition of growth at 200 ppm in data set [2] was at least 80%. The inhibition of growth at 200 ppm in data set [9] is at least 80%. Moreover, in data set [3], the inhibition of growth at 200 ppm was at least 80%. Also, in data set [4], the pest or weed control at 200 ppm was at least 80%. In addition, the inhibition of growth at 200 ppm in data set [5] was at least 80%. Besides, in [7], the inhibition of growth at 200 ppm was at least 80%.

On to `Cc1cccc2cc(C(=O)NC(C)(Cc3ccccc3)CC(C)C)cnc12` (stereo not shown) [Compound E-20, N-(1-benzyl-1,3-dimethyl-butyl)-8-methyl-quinoline-3-carboxamide], for which the melting point lay in the range of 132 to 133 °C. The inhibition of growth at 200 ppm in data set [1] was at least 80%. In data set [8], the inhibition of growth at 20 ppm is at least 80%. Besides, in data set [2], the inhibition of growth at 200 ppm was at least 80%. In data set [9], the inhibition of growth at 200 ppm is at least 80%. For the same compound, the inhibition of growth at 200 ppm in [3] was at least 80%. Besides, the pest or weed control at 200 ppm in data set [4] is at least 80%. Further, the inhibition of growth at 200 ppm in data set [5] is at least 80%. Further, in data set [7], the inhibition of growth at 200 ppm is at least 80%.

The compound `CC(C)(C)CC(Cc1ccccc1)NC(=O)c1cnc2c(F)cccc2c1` (stereo not shown) [Compound E-28, N-(1-benzyl-3,3-dimethyl-butyl)-8-fluoro-quinoline-3-carboxamide] came in with a melting point of 178 to 180 °C. Besides, the inhibition of growth at 200 ppm in [1] was at least 80%. In addition, in data set [8], the inhibition of growth at 20 ppm is at least 80%. Also, in data set [2], the inhibition of growth at 200 ppm is at least 80%. Also, the inhibition of growth at 200 ppm in data set [9] was at least 80%. For the same compound, the inhibition of growth at 200 ppm in [3] was at least 80%. For the same compound, the pest or weed control at 200 ppm in data set [4] is at least 80%. Also, the inhibition of growth at 200 ppm in [5] was at least 80%. Further, the inhibition of growth at 200 ppm in [7] is at least 80%.

For `Cc1cccc2cc(C(=O)NC(C)(Cc3ccccc3)CC(F)(F)F)cnc12` (stereo not shown) [Compound E-61, N-(1-benzyl-3,3,3-trifluoro-1-methyl-propyl)-8-methyl-quinoline-3-carboxamide], the melting point lay within 120 to 123 °C. For the same compound, the inhibition of growth at 200 ppm in data set [1] was at least 80%. Besides, the inhibition of growth at 200 ppm in data set [2] is at least 80%. The inhibition of growth at 200 ppm in [3] is at least 80%. For the same compound, the pest or weed control at 200 ppm in data set [4] is at least 80%. Moreover, the inhibition of growth at 200 ppm in data set [5] is at least 80%. In [6], the inhibition of growth at 200 ppm is at least 80%. Moreover, the inhibition of growth at 200 ppm in data set [7] was at least 80%.

With `CC(C)(Cc1ccccc1F)NC(=O)c1cnc2ccccc2c1` [Compound E-2, N-[2-(2-fluorophenyl)-1,1-dimethyl-ethyl]quinoline-3-carboxamide], the inhibition of growth at 200 ppm in data set [2], in data set [9], in data set [3], in [5], in data set [6] and in data set [7] was at least 80% each time.

For the compound `CC(F)(F)C[C@@](C)(Cc1ccccc1)NC(=O)c1cnc2ccccc2c1` [Compound F-26, N-[(1R)-1-benzyl-3,3-difluoro-1-methyl-butyl]quinoline-3-carboxamide], the inhibition of growth at 200 ppm in data set [2], in [3], in [5], in data set [6] and in data set [7] was at least 80% each time. In addition, the pest or weed control at 200 ppm in data set [4] is at least 80%.

Compound `C=C(C)CC(C)(Cc1ccccc1)NC(=O)c1cnc2c(F)cccc2c1` (stereo not shown) [Compound E-35, N-(1-benzyl-1,3-dimethyl-but-3-enyl)-8-fluoro-quinoline-3-carboxamide] came in with a melting point of 115 to 117 °C. In addition, the inhibition of growth at 200 ppm in data set [1] is at least 80%. The inhibition of growth at 20 ppm in data set [8] was at least 80%. The inhibition of growth at 200 ppm in data set [2] was at least 80%. Moreover, the inhibition of growth at 200 ppm in data set [9] was at least 80%. The inhibition of growth at 200 ppm in data set [3] is at least 80%. In [4], the pest or weed control at 200 ppm is at least 80%. Also, the inhibition of growth at 200 ppm in data set [5] was at least 80%. Besides, the inhibition of growth at 200 ppm in [7] is at least 80%.

The compound `CC(C)CC(C)(Cc1cccc(F)c1)NC(=O)c1cnc2c(F)cccc2c1` (stereo not shown) [Compound E-26, 8-fluoro-N-[1-[(3-fluorophenyl)methyl]-1,3-dimethyl-butyl]quinoline-3-carboxamide] came in with a melting point of 45 to 47 °C. Further, the inhibition of growth at 200 ppm in data set [1] was at least 80%. Further, in [8], the inhibition of growth at 20 ppm was at least 80%. In [2], the inhibition of growth at 200 ppm is at least 80%. Moreover, the inhibition of growth at 200 ppm in [9] was at least 80%. Further, the inhibition of growth at 200 ppm in data set [3] was at least 80%. The pest or weed control at 200 ppm in data set [4] is at least 80%. For the same compound, the inhibition of growth at 200 ppm in [5] is at least 80%. Besides, in data set [7], the inhibition of growth at 200 ppm was at least 80%.

`CC(C)C[C@@](C)(Cc1ccccc1)NC(=O)c1cnc2ccccc2c1` [Compound F-6, N-[(1S)-1-benzyl-1,3-dimethyl-butyl]quinoline-3-carboxamide]: the inhibition of growth at 200 ppm in data set [2], in data set [9], in [3], in data set [5] and in [6] was at least 80% in each case.

The values above are taken from US10477864B2, “Microbiocidal quinoline (thio)carboxamide derivatives” (priority 2016, dated 2019).
